Assay results: patent publication US20150065440A1 (Progen Pharmaceuticals Limited, priority 2007, published 2015)

How the values were obtained:
[1] = target: T1, VEGF (Homo sapiens, UniProt P15692); assay: Growth factor binding assay (SPR solution affinity), VEGF; settings: HBS-EP buffer, 25° C.
T1 sequence (P15692 207-395): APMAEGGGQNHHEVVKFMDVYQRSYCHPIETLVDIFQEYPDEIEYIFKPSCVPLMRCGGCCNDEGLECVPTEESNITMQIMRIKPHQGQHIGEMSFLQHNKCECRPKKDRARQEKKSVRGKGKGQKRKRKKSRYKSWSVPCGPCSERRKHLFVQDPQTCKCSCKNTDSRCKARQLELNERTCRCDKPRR
Method in brief: (§1)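 Kd measured by SPR solution affinity: fixed growth factor with varying ligand competing for heparin-coated sensorchip, 25 °C. Buffer HBS-EP pH 7.4 (150 mM NaCl) for FGF-1 and VEGF; FGF-2 with 0.3 M NaCl. Duplicate values averaged.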

[2] = target: FGF-1 (Homo sapiens, UniProt P05230); assay: Growth factor binding assay (SPR solution affinity), FGF-1; settings: SPR, HBS-EP buffer, 25° C.; read-out: Kd FGF-1
Sequence of FGF-1 (P05230 whole entry, species assumed): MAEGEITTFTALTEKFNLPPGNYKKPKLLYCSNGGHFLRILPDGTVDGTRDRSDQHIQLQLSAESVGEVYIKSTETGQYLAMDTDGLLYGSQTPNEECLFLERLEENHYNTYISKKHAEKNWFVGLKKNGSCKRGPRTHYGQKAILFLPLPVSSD

[3] = target: FGF-2 (Homo sapiens, UniProt P09038); assay: Growth factor binding assay (SPR solution affinity), FGF-2; settings: SPR, HBS-EP buffer containing 0.3 M NaCl, 25° C.; read-out: Kd FGF-2
Sequence of FGF-2 (P09038 143-288, species assumed): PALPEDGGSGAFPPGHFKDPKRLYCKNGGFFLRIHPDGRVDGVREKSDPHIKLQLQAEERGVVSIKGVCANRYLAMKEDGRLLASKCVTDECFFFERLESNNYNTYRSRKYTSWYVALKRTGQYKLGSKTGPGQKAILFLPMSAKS
Method in brief: as §1

[4] = system: HSV-1; assay: Anti-HSV screening assay (viral plaques), HSV-1; assay type: cell-based; settings: 100 μg/mL, viral plaques relative to mock treated controls
Method: (§2) African green monkey kidney (GMK AH1) cells^46 were cultured in Eagle's minimum essential medium (EMEM) supplemented with 2% calf serum, 0.05% Primaton RL substance (Kraft Inc., Norwich, USA) and antibiotics. Human epidermoid carcinoma (HEp-2) cells were cultured in Dulbecco's modified EMEM (DMEM) supplemented with 10% fetal calf serum and antibiotics. […] The RSV strain A-2^50 was used. The RSV stock was prepared as described by Hallak et al.^51 and stored at −70° C. in the presence of 40% sucrose^52.
(§3) The viral infectivity (the plaque number-reduction) assay and the plaque size-reduction assay were carried out as described previously^17. […] Subsequently, the cells were washed with 2 mL of EMEM and overlaid with 1% methylcellulose solution in EMEM. The plaques were visualized by staining with crystal violet solution after 2 (HSV-2) or 3 (HSV-1) days of incubation at 37° C. […] When the compounds were screened for anti-HSV or anti-RSV activity, mixtures of 200 PFU of the virus and the test compound (100 μg/mL) in serum-free EMEM were incubated for 10 min at room temperature before addition to cells and during the entire period of viral infection of cells and the development of viral plaques. In the plaque size-reduction assay, the compounds were added to cells (in methylcellulose overlay medium) after 2 h period of virus infection of cells in the absence of the inhibitor. After 2-3 days of incubation at 37° C., the viral plaques were visualized by staining the cells with 1% solution of crystal violet. For each compound tested, the images of twenty neighboring plaques were captured using a Leica DC300 digital camera attached to a Leitz-Wetzlar Diavert microscope. The area of each plaque was determined using IM500 image software (Leica). Similar protocols were used for RSV, except that the assays were performed in HEp-2 cells and DMEM supplemented with 2% heat-inactivated fetal calf serum was used instead of EMEM.

[5] = system: HSV-2; assay: Anti-HSV screening assay (viral plaques), HSV-2; assay type: cell-based; settings: 100 μg/mL, viral plaques relative to mock treated controls
Method: as §2, §3

[6] = system: RSV; assay: Anti-RSV screening assay (viral plaques); assay type: cell-based; settings: 100 μg/mL, viral plaques relative to mock treated controls
Method: as §2, §3

[7] = system: GMK AH1 cells; assay: Cytotoxicity assay, GMK AH1; assay type: cell-based, African green monkey; settings: cell viability reduced by 50%
Method: The assay was performed in GMK AH1 cells that had been seeded in 96 well cluster plates and reached approximately 80-90% confluence at day 2 of culture. The cells were washed with EMEM and incubated for 24 h at 37° C. with 100 μL of serial two-fold dilutions of the test compound in serum-free EMEM. The effect of the test compound on cell viability was measured by using the tetrazolium-based CellTiter96 assay according to the manufacturer's protocol (Promega, Madison, Wis., USA).

[8] = system: HSV-1; assay: Viral plaque number-reduction assay, HSV-1; settings: GMK AH1 cells
Method: as §2, §3

[9] = system: HSV-2; assay: Viral plaque number-reduction assay, HSV-2; settings: GMK AH1 cells
Method: as §2, §3

[10] = target: T2, recombinant human heparanase (Homo sapiens, UniProt Q9Y251); assay: Heparanase inhibition assay (fondaparinux cleavage, WST-1); settings: read-out: Ki Heparanase; IC50 converted into Ki; fondaparinux 100 μM, pH 5.0
T2 sequence (Q9Y251 158-543 limits assumed): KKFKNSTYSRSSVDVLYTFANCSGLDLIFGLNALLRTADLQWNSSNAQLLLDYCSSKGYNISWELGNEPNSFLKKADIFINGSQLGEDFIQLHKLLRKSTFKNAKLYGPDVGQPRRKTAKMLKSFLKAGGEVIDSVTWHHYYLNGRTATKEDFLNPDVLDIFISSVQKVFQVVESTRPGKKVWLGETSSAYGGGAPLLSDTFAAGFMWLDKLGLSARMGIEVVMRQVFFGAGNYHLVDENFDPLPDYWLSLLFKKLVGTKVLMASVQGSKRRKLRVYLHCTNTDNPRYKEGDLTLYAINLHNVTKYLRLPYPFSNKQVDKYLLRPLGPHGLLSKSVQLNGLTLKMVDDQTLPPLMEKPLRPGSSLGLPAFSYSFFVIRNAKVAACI
T2 sequence (Q9Y251 36-109 limits assumed): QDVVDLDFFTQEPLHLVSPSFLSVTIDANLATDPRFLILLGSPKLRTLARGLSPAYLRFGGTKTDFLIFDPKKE

SMILES: O=S(=O)(O)OCC1OC(OC2C(OCCCCCCCCCCCCn3cc(-c4cccc5ccccc45)nn3)OC(COS(=O)(=O)O)C(OS(=O)(=O)O)C2OS(=O)(=O)O)C(OS(=O)(=O)O)C(OC2OC(COS(=O)(=O)O)C(OS(=O)(=O)O)C(OC3OC(COS(=O)(=O)O)C(OS(=O)(=O)O)C(OC4OC(COS(=O)(=O)O)C(OS(=O)(=O)O)C(OS(=O)(=O)O)C4OS(=O)(=O)O)C3OS(=O)(=O)O)C2OS(=O)(=O)O)C1OS(=O)(=O)O [Compound 11, 12-(4-Naphthalen-1-yl-[1,2,3]triazol-1-yl)dodecyl 2,3,4,6-tetra-O-sodium sulfonato-α-D-mannopyranosyl-(1→3)-2,4,6-tri-O-sodium sulfonato-α-D-mannopyranosyl-(1→3)-2,4,6-tri-O-sodium sulfonato-α-D-mannopyranosyl-(1→3)-2,4,6-tri-O-sodium sulfonato-α-D-mannopyranosyl-(1→2)-3,4,6-tri-O-sodium sulfonato-α-D-mannopyranoside]
- Kd [1]: 0.79 ± 0.24 nM
- Kd [2]: 0.19 ± 0.1 nM
- Kd [3]: 73 ± 23 nM
- Residual infectivity (%) HSV-1 [4]: 0%
- Residual infectivity (%) HSV-2 [5]: 0%
- Residual infectivity (%) RSV [6]: 0%
- Cytotoxicity CC50 GMK AH1 [7]: >400 mg/L
- Selective index CC50/IC50 HSV-1 [8]: > 222
- Selective index CC50/IC50 HSV-2 [9]: > 444
- Ki [10]: 4.8 ± 1.8 nM

SMILES: O=S(=O)(O)OCC1OC(OC2C(OCCCCCCCCCCCCn3cc(-c4ccccc4)nn3)OC(COS(=O)(=O)O)C(OS(=O)(=O)O)C2OS(=O)(=O)O)C(OS(=O)(=O)O)C(OC2OC(COS(=O)(=O)O)C(OS(=O)(=O)O)C(OC3OC(COS(=O)(=O)O)C(OS(=O)(=O)O)C(OC4OC(COS(=O)(=O)O)C(OS(=O)(=O)O)C(OS(=O)(=O)O)C4OS(=O)(=O)O)C3OS(=O)(=O)O)C2OS(=O)(=O)O)C1OS(=O)(=O)O [Compound 8, 12-(4-Phenyl-[1,2,3]triazol-1-yl)dodecyl 2,3,4,6-tetra-O-sodium sulfonato-α-D-mannopyranosyl-(1→3)-2,4,6-tri-O-sodium sulfonato-α-D-mannopyranosyl-(1→3)-2,4,6-tri-O-sodium sulfonato-α-D-mannopyranosyl-(1→3)-2,4,6-tri-O-sodium sulfonato-α-D-mannopyranosyl-(1→2)-3,4,6-tri-O-sodium sulfonato-α-D-mannopyranoside]
- Kd [1]: 5.1 ± 1.8 nM
- Kd [2]: 2.3 ± 1.3 nM
- Kd [3]: 253 ± 25 nM
- Residual infectivity (%) HSV-1 [4]: 7%
- Residual infectivity (%) HSV-2 [5]: 0.2%
- Residual infectivity (%) RSV [6]: 3%
- Ki [10]: 3.5 ± 0.4 nM
